Reference: US8431567B2 (Abbott GmbH & Co. KG, priority 2006, dated 2013)

Target: T1, human vasopressin V1b receptor (Homo sapiens, UniProt P47901)
T1 construct: expressed in transfected cells; host or cells: CHO-K1 (cell line hV1b_3H2_CHO), membrane preparation
T1 sequence (P47901 1-424): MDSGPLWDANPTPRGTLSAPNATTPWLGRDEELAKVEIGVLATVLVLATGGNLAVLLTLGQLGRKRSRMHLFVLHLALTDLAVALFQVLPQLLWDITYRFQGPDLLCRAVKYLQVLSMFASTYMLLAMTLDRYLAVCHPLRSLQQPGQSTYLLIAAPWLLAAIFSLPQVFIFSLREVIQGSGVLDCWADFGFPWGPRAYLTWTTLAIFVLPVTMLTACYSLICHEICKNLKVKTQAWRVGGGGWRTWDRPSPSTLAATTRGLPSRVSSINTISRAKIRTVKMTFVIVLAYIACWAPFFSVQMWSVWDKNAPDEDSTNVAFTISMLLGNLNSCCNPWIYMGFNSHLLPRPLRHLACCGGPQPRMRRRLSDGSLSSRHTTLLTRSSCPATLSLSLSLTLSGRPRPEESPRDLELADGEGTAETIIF
Experiment: Vasopressin V1b receptor binding test
Details: membranes of CHO-K1 cells, displacement of 1.5 nM 3H-AVP
Description: • Vasopressin V1b Receptor Binding Test: • Substances:
The test substances were dissolved at a concentration of 10^−2 M in DMSO and diluted further in DMSO to 5×10^−4 M to 5×10^−9 M. These DMSO solutions were diluted 1:10 with test buffer. The concentration of substance was again diluted 1:5 in the test preparation.
The membrane pellet was homogenized and centrifuged again as described, and then taken up in 50 mM Tris-HCl, pH 7.4, homogenized and, frozen in aliquots, stored at −190° C. in liquid nitrogen.
The incubation buffer was: 50 mM Tris, 10 mM MgCl2, 0.1% BSA, pH 7.4. […] The nonspecific binding was determined with 1 μM AVP (Bachem #H1780). All determinations were performed in triplicate. After incubation (60 minutes at room temperature), the free radioligand was filtered off by vacuum filtration (Skatron cell harvester 7000) on Whatman GF/B glass-fibre filter mats and the filters were transferred to scintillation vessels. Liquid scintillation measurement was performed in a Tricarb instrument, Model 2000 or 2200CA (Packard). Conversion of the measured cpm to dpm was performed with the aid of a standard quench series.
The binding parameters were calculated by nonlinear regression in SAS.
For the compounds according to the invention, the affinities for the human vasopressin receptor V1b were measured according to the above test and the affinity constant (Ki) was determined.

| Compound | Ki [µM] |
| --- | --- |
| CCOc1ccc(C)cc1C1(N2CCN(c3ccncc3)CC2)C(=O)N(S(=O)(=O)c2ccc(OC)cc2OC)c2ccc(C#N)cc21 (racemic) [Example 101, (±)-5-Cyano-1-(2,4-dimethoxy-benzenesulphonyl)-3-(2-ethoxy-5-methylphenyl)-3-(4-pyridin-4-yl-piperazin-1-yl)-2,3-dihydro-1H-indol-2-one] | < 0.05 |
| CCOc1ccc(OC)cc1C1(N2CCN(C3CCN(C)CC3)CC2)C(=O)N(S(=O)(=O)c2ccc(OC)cc2OC)c2ccc(C#N)cc21 (racemic) [Example 102, (±)-5-Cyano-1-(2,4-dimethoxy-benzenesulphonyl)-3-(2-ethoxy-5-methoxyphenyl)-3-[4-(1-methyl-piperidin-4-yl)-piperazin-1-yl]-2,3-dihydro-1H-indol-2-one] | < 0.05 |
| CCOc1ccc(CC)cc1C1(N2CCN(c3ccnc(C(C)C)c3)CC2)C(=O)N(S(=O)(=O)c2ccc(OC)cc2OC)c2ccc(C#N)cc21 (racemic) [Example 105, (±)-5-Cyano-1-(2,4-dimethoxy-benzenesulphonyl)-3-(2-ethoxy-5-ethyl-phenyl)-3-[4-(2-isopropyl-pyridin-4-yl)-piperazin-1-yl]-2,3-dihydro-1H-indol-2-one] | < 0.05 |
| CCOc1ccc(CC)cc1C1(N2CCN(c3ccnc(C)c3)CC2)C(=O)N(S(=O)(=O)c2ccc(OC)cc2OC)c2ccc(C#N)cc21 (racemic) [Example 107, (±)-5-Cyano-1-(2,4-dimethoxy-benzenesulphonyl)-3-(2-ethoxy-5-ethyl-phenyl)-3-[4-(2-methyl-pyridin-4-yl)-piperazin-1-yl]-2,3-dihydro-1H-indol-2-one] | < 0.05 |
| CCOc1ccc(OC)cc1C1(N2CCN(c3ccncc3)CC2)C(=O)N(S(=O)(=O)c2ccc(OC)cc2OC)c2ccc(C#N)cc21 (single isomer, unassigned; (+)) [Example 96, (+)-5-Cyano-1-(2,4-dimethoxy-benzenesulphonyl)-3-(2-ethoxy-5-methoxyphenyl)-3-(4-pyridin-4-yl-piperazin-1-yl)-2,3-dihydro-1H-indol-2-one] | < 0.05 |
| CCOc1ccc(OC)cc1C1(N2CCN(c3ccnc(C)c3)CC2)C(=O)N(S(=O)(=O)c2ccc(OC)cc2OC)c2ccc(C#N)cc21 (single isomer, unassigned; (+)) [Example 106, (+)-5-Cyano-1-(2,4-dimethoxy-benzenesulphonyl)-3-(2-ethoxy-5-methoxyphenyl)-3-[4-(2-methyl-pyridin-4-yl)-piperazin-1-yl]-2,3-dihydro-1H-indol-2-one] | < 0.05 |
| CCOc1ccccc1C1(N2CCN(c3cccnc3)CC2)C(=O)N(S(=O)(=O)c2ccc(OC)cc2OC)c2ccc(C#N)cc21 (centres unmarked) [Example 2, 5-Cyano-1-(2,4-dimethoxy-benzenesulphonyl)-3-(2-ethoxyphenyl)-3-(4-pyridin-3-yl-piperazin-1-yl)-2,3-dihydro-1H-indol-2-one] | 0.05 to 0.5 |
| COc1ccc(S(=O)(=O)N2C(=O)C(c3ccccc3OC)(N3CCN(c4ccncc4)CC3)c3cc(Cl)ccc32)c(OC)c1 (centres unmarked) [Example 3, 5-Chloro-1-(2,4-dimethoxy-benzenesulphonyl)-3-(2-methoxyphenyl)-3-(4-pyridin-4-yl-piperazin-1-yl)-1,3-dihydro-indol-2-one] | < 0.05 |
| COc1ccccc1C1(N2CCN(c3ccncc3)CC2)C(=O)N(S(=O)(=O)c2ccc(C#N)cc2)c2ccc(Cl)cc21 (centres unmarked) [Example 4, 4-[5-Chloro-3-(2-methoxyphenyl)-2-oxo-3-(4-pyridin-4-yl-piperazin-1-yl)-2,3-dihydro-indole-1-sulphonyl]-benzonitrile] | 0.05 to 0.5 |
| COc1ccccc1C1(N2CCN(c3ccncc3)CC2)C(=O)N(S(=O)(=O)c2ccccc2OC)c2ccc(Cl)cc21 (centres unmarked) [Example 5, 5-Chloro-1-(2-methoxy-benzenesulphonyl)-3-(2-methoxyphenyl)-3-(4-pyridin-4-yl-piperazin-1-yl)-1,3-dihydro-indol-2-one] | < 0.05 |
| COc1ccccc1C1(N2CCN(c3ccncc3)CC2)C(=O)N(S(=O)(=O)c2ccc(C)cc2OC)c2ccc(Cl)cc21 (centres unmarked) [Example 6, 5-Chloro-1-(2-methoxy-4-methyl-benzenesulphonyl)-3-(2-methoxyphenyl)-3-(4-pyridin-4-yl-piperazin-1-yl)-1,3-dihydro-indol-2-one] | < 0.05 |
| CCOc1ccccc1C1(N2CCN(c3ccncc3)CC2)C(=O)N(S(=O)(=O)c2ccc(C#N)cc2)c2ccc(C#N)cc21 (centres unmarked) [Example 7, 5-Cyano-1-(4-cyano-benzenesulphonyl)-3-(2-ethoxyphenyl)-3-(4-pyridin-4-yl-piperazin-1-yl)-2,3-dihydro-1H-indol-2-one] | 0.05 to 0.5 |
| CCOc1ccccc1C1(N2CCN(c3ccncc3)CC2)C(=O)N(S(=O)(=O)c2ccccc2OC)c2ccc(C#N)cc21 (centres unmarked) [Example 8, 5-Cyano-3-(2-ethoxyphenyl)-1-(2-methoxy-benzenesulphonyl)-3-(4-pyridin-4-yl-piperazin-1-yl)-2,3-dihydro-1H-indol-2-one] | 0.05 to 0.5 |
| CCOc1ccccc1C1(N2CCN(c3ccncc3)CC2)C(=O)N(S(=O)(=O)c2ccc(C)cc2OC)c2ccc(C#N)cc21 (centres unmarked) [Example 9, 5-Cyano-3-(2-ethoxyphenyl)-1-(2-methoxy-4-methyl-benzenesulphonyl)-3-(4-pyridin-4-yl-piperazin-1-yl)-2,3-dihydro-1 H-indol-2-one] | 0.05 to 0.5 |
| CCOc1ccccc1C1(N2CCN(c3ccncc3)CC2)C(=O)N(S(=O)(=O)c2ccc(OC)cc2OC)c2ccc(C#N)cc21 (centres unmarked) [Example 10, 5-Cyano-1-(2,4-dimethoxy-benzenesulphonyl)-3-(2-ethoxyphenyl)-3-(4-pyridin-4-yl-piperazin-1-yl)-2,3-dihydro-1H-indol-2-one] | < 0.05 |
| COc1ccc(S(=O)(=O)N2C(=O)C(c3ccccc3OC)(N3CCN(c4ccncc4)CC3)c3cc(Cl)ccc32)cc1OC (centres unmarked) [Example 12, 5-Chloro-1-(3,4-dimethoxy-benzenesulphonyl)-3-(2-methoxyphenyl)-3-(4-pyridin-4-yl-piperazin-1-yl)-1,3-dihydro-indol-2-one] | 0.05 to 0.5 |
| CCOc1ccccc1C1(N2CCN(c3ccncc3)CC2)C(=O)N(S(=O)(=O)c2ccccc2)c2ccc(C#N)cc21 (centres unmarked) [Example 14, 5-Cyano-1-benzenesulphonyl-3-(2-ethoxyphenyl)-3-(4-pyridin-4-yl-piperazin-1-yl)-2,3-dihydro-1H-indol-2-one] | 0.05 to 0.5 |
| CCOc1ccccc1C1(N2CCN(c3ccncc3)CC2)C(=O)N(S(=O)(=O)c2ccc(F)cc2)c2ccc(C#N)cc21 (centres unmarked) [Example 15, 5-Cyano-3-(2-ethoxyphenyl)-1-(4-fluoro-benzenesulphonyl)-3-(4-pyridin-4-yl-piperazin-1-yl)-2,3-dihydro-1H-indol-2-one] | 0.05 to 0.5 |
| COc1ccccc1C1(N2CCN(c3ccncc3)CC2)C(=O)N(S(=O)(=O)c2ccccc2)c2ccc(Cl)cc21 (centres unmarked) [Example 16, 1-Benzenesulphonyl-5-chloro-3-(2-methoxyphenyl)-3-(4-pyridin-4-yl-piperazin-1-yl)-1,3-dihydro-indol-2-one] | 0.05 to 0.5 |
| COc1ccccc1C1(N2CCN(c3ccncc3)CC2)C(=O)N(S(=O)(=O)c2ccc(Cl)cc2)c2ccc(Cl)cc21 (centres unmarked) [Example 18, 5-Chloro-1-(4-chloro-benzenesulphonyl)-3-(2-methoxyphenyl)-3-(4-pyridin-4-yl-piperazin-1-yl)-1,3-dihydro-indol-2-one] | 0.05 to 0.5 |
| COc1ccc(S(=O)(=O)N2C(=O)C(c3ccccc3OC)(N3CC4CN(c5ccncc5)CC4C3)c3cc(Cl)ccc32)c(OC)c1 (centres unmarked) [Example 19, 5-Chloro-1-(2,4-dimethoxy-benzenesulphonyl)-3-(2-methoxyphenyl)-3-(5-pyridin-4-yl-hexahydro-pyrrolo[3,4-c]pyrrol-2-yl)-1,3-dihydro-indol-2-one] | < 0.05 |
| COc1ccc(S(=O)(=O)N2C(=O)C(c3ccccc3OC)(N3CCN(c4ccncc4)CC3)c3cc(Cl)ccc32)cc1 (centres unmarked) [Example 20, 5-Chloro-1-(4-methoxy-benzenesulphonyl)-3-(2-methoxyphenyl)-3-(4-pyridin-4-yl-piperazin-1-yl)-1,3-dihydro-indol-2-one] | 0.05 to 0.5 |
| COc1ccc(S(=O)(=O)N2C(=O)C(c3ccccc3OC)(N3C[C@H]4CN(c5ccncc5)C[C@H]43)c3cc(Cl)ccc32)c(OC)c1 (stereo partly drawn) [Example 21, 5-Chloro-1-(2,4-dimethoxy-benzenesulphonyl)-3-(2-methoxyphenyl)-3-((1R,5S)-3-pyridin-4-yl-3,6-diaza-bicyclo[3.2.0]hept-6-yl)-1,3-dihydro-indol-2-one] | < 0.05 |
